In PMC2587488 (Journal of pineal research, 2008):
Read-outs that look alike come from different tables or passages of the source.

Assays:
[1] = test system: rat microsomal cytochrome P450s; assay: in vitro; conditions: microsomes, pH 7.4, inhibition of melatonin O-demethylation (NAS formation)
[2] = test system: mitochondrial cytochrome P450s; assay: in vitro; conditions: rat, pH 7.4, inhibition of melatonin O-demethylation (NAS formation)
[3] = test system: rat liver postmitochondrial supernatant; conditions: cited from earlier work
[4] = test system: NADH oxidase; conditions: isolated rat liver mitochondria; cited from earlier work
[5] = test system: human liver microsomes; conditions: cited from earlier work
[6] = test system: mitochondrial cytochrome P450s; conditions: mitochondria
[7] = test system: rat microsomal cytochrome P450s; conditions: microsomes
[8] = test system: CYP1A2; conditions: liver slices and microsomes of treated rats; cited from earlier work
[9] = 6-HMel formation from melatonin

Compound: CCN(CC)C(=S)S [Diethyldihydrocarbamate, diethyldithiocarbamate]
- inhibition at 60 min, 50 μM [1]: 38%
- inhibition at 60 min, 50 μM [2]: 74%

Compound: Cc1nc2c([nH]1)c(=O)n(C)c(=O)n2Cc1ccco1 [Furafylline, furafylline]
- inhibition at 60 min, 20 μM [1]: 27%
- inhibition at 60 min, 20 μM [2]: 63%
- inhibition of the conversion of melatonin to 6-sulphatoxymelatonin [3]: inhibited markedly

Compound: CC(=O)N1CCN(c2ccc(OCC3COC(Cn4ccnc4)(c4ccc(Cl)cc4Cl)O3)cc2)CC1 (stereo not shown) [Ketoconazole, ketoconazole]
- inhibition of NADH oxidase [4]: dose-dependent inhibition
- inhibition at 60 min, 5 μM [1]: 52%
- inhibition at 60 min, 5 μM [2]: 49%
- inhibition of melatonin metabolism [5]: only weak inhibitors

Compound: COc1ccc2[nH]c([S+]([O-])Cc3ncc(C)c(OC)c3C)nc2c1 (stereo not shown) [Omeprazole, omeprazole]
- inhibition at 60 min, 100 μM [1]: 78%
- inhibition at 60 min, 100 μM [2]: 81%

Compound: C=C[C@H]1C[N@@]2CC[C@H]1C[C@@H]2[C@@H](O)c1ccnc2ccc(OC)cc12 [Quinidine, quinidine]
- inhibition at 60 min, 5 μM [1]: 38%
- inhibition at 60 min, 5 μM [2]: 33%
- inhibition of melatonin metabolism [5]: only weak inhibitors

Compound: COc1ccc2[nH]cc(CCNC(C)=O)c2c1 [melatonin, N-acetyl-5-methoxytryptamine]
- Km2 (low affinity component) [6, 9]: 406.6 ± 19.84 µM
- Km1 (high affinity component) ([6]; NAS formation from melatonin): 13.96 ± 2.37 µM
- Km1 (high affinity component) [7, 9]: 48.33 ± 9.17 µM
- Km2 (low affinity component) [7, 9]: 496.8 ± 53.78 µM
- Km1 (high affinity component) ([7]; NAS formation from melatonin): 25.86 ± 1.39 µM
- Km2 (low affinity component) ([7]; NAS formation from melatonin): 953.3 ± 85.95 µM

Compound: Nc1ccc(S(=O)(=O)Nc2ccnn2-c2ccccc2)cc1 [sulfaphenazole]
- inhibition at 60 min, 10 μM [2]: 27%

Compound: O=c1cc(-c2ccccc2)oc2c1ccc1ccccc12 [α-naphthoflavone]
- increase in melatonin conversion to 6-sulphatoxymelatonin [8]: 3 fold
